Source: patent US4897390A, “Novel anti-obesity compounds and method of use” (priority 1987, dated 1990)

Tests used:
11β-hydroxylase = settings: cited from earlier work
[1] = DHEA treatment in mice; cited from earlier work
[2] = system: uterine weight of the immature mouse; assay: Estrogenic effect: uterine weight of the immature mouse; assay type: in vivo, C57-WH mice
Description: Immature female C57-WH mice were maintained at 25° C. at 12 hours light/12 hours dark (lights on at 0800 h and off at 2000 h). Purina Lab Chow and water were available ad libitum. The control and each experimental group of animals consisted of six mice. Treatment began after an acclimation period of five days. Beginning at 27 days of age and continuing for three consecutive days, the mice were orally intubated with DHEA or β-MET suspended in sesame oil. The control mice received only sesame oil. Between 1400-1600 h on day 30, all animals were sacrificed by an overdose of ether. Uteri were removed, cleaned of adventitious tissue, and weighed to the nearest 0.5 mg.
All reported results are expressed as the mean plus or minus the standard error (mean±SE).

fatty acid synthetase [3] = settings: cited from earlier work
NADH oxidase = settings: cited from earlier work
[4] = system: thyroid stimulating hormone and thyroxine; settings: cited from earlier work
[5] = cited from earlier work
[6] = system: glucose-6-phosphate dehydrogenase (G6PD); settings: cited from earlier work
fatty acid synthetase [7] = settings: prolonged treatment; mice with excessive levels of this enzyme; cited from earlier work
obesity [8] = settings: known; cited from earlier work
[9] = cited from earlier work; for deactivation and excretion from general circulation: once excreted from cells to the general circulation; for conjugation in blood stream: when excreted by individual cells to the blood stream
[10] = Cumulative food consumption of C57-WH mice treated with β-MET for 14 weeks; assay type: in vivo
Description: (§1) Forty C57-WH mice were maintained five per cage in a temperature-controlledroom (25° C.) with 12-h light/day (7:00 A.M. to 7:00 P.M.). All mice were at ten weeks of age when the experiment was begun.
(§2) The mice were divided into four groups: β-MET-treated female; control female; β-MET-treated male; and control male (for each group, n=10). All β-MET-treated animals received 0.07 mg (~4.6 mg/kg) of the β-MET administered as a suspension in sesame oil by PO intubation three times weekly. The control animals received only sesame oil. The mice were treated for a period of 14 weeks with access to Purina Laboratory chow and water ad libitum. Body weights were recorded weekly, and food consumption was determined by subtracting the food remaining from the food supplied at the beginning of each week.
(§3) Student's t-test was used in all statistical analyses of the data. Data are presented as means ±SD from the four groups of mice. Differences were considered significant at p<0.01.

Salmonella typhimurium = settings: alone and with liver homogenate fraction from rat treated with polychlorinated biphenyl
Description: β-MET was tested for mutagenicity by administration to a his^- auxotrophic mutant of Salmonella typhimurium.β-MET was administered alone and with a liver homogenate fraction from a rat that had been treated with polychlorinated biphenyl.

[11] = Body weight of C57-WH mice treated with β-MET for 14 weeks; assay type: in vivo; settings: for mean weight after 14 weeks: 0.07 mg (~4.6 mg/kg) PO three times weekly, n=10; for significance of difference in mean weights versus control: significant at p<0.01
Description: as §1, §2, §3

obesity [12] = assay: Anti-obesity efficacy in various mammalian systems (general statement); assay type: in vivo
[13] = Short-term (thirty day) treatment with large doses in mice; assay type: in vivo, C57-WH mice
Description: Five male and five female C57-WH mice (age: ~11 weeks, weight: ~15 g each) each received 200 mg/kg of β-MET, suspended in sesame oil, by p.o. intubation every second day for a period of thirty days. Another group of ten matched controls received only the sesame oil. […] Abnormalities such as hypertrophic lymph nodes, diarrhea, bloody stools, or loss of hair luster were not seen.

[14] = Acute oral toxicity in mice (LD50); assay type: in vivo, C57-WH mice
Description: The LD50 of β-MET administered orally in mice could not be accurately determined. However, five male and five female C57-WH mice, each weighing approximately 15 g, received 200 mg of β-MET, suspended in sesame oil, by p.o. intubation.

[15] = 200 mg/kg p.o. every second day for thirty days

In the case of C[C@]12CC[C@H](O)CC1=CC[C@@H]1[C@@H]2CC[C@]2(C)C(=O)CC[C@@H]12 [DHEA, dehydroepiandrosterone], the “inhibition of 11β-hydroxylase” value (11β-hydroxylase) is listed as “known to inhibit 11β-hydroxylase”, the “lipogenesis and fat cell size” value [1] is listed as “decreases in lipogenesis and fat cell size” and the Uterine weight ([2]; daily dose 400.0 mg/kg, oral, three consecutive days from day 27, mean±SE, control 58.0 ± 3) is listed as 257.0 ± 5 mg/100 g body weight. For the same molecule, the “inhibition of fatty acid synthetase” value (fatty acid synthetase [3]) was “known to directly inhibit fatty acid synthetase”, the “inhibition of NADH oxidase” value (NADH oxidase) was “known inhibitor of NADH oxidase” and the thyroid follicle epithelium ([4]; rat studies) was “hypertrophy of the thyroid follicle epithelium”. For the same molecule, the “levels of thyroid stimulating hormone and thyroxine in the blood” value ([4]; rat, in vivo) was “known to increase levels of thyroid stimulating hormone and thyroxine in the blood”, the toxicity in humans ([5]; in vivo) was “relatively low toxicity in humans” and the “estrogenic and androgenic effects” value ([5]; long-term administration, humans) was “Estrogenic and androgenic effects”. For the same molecule, the “inhibition of mammalian G6PD” value [6] was “known to inhibit mammalian glucose-6-phosphate dehydrogenase” and the “liver and adipose tissue fatty acid synthetase activity” value (fatty acid synthetase [7]) was “decrease liver and adipose tissue fatty acid synthetase activity”.

In the case of C[C@]12CC[C@@H](O)C[C@H]1CC[C@@H]1[C@@H]2CC[C@]2(C)C(=O)CC[C@@H]12 [α-HET, 3α-hydroxyetiocholanone], the “anti-obesity effects attributed to DHEA” value (obesity [8]) is given as “known to accomplish the anti-obesity effects attributed to DHEA”, the “deactivation and excretion from general circulation” value [9] is given as “rapidly deactivated and excreted from the body” and the “conjugation in blood stream” value [9] is given as “conjugated to glucuronic acid at the 3-hydroxy position”.

In the case of C[C@]12CC[C@H](O)C[C@H]1CC[C@@H]1[C@@H]2CC[C@]2(C)C(=O)CC[C@@H]12 [β-HET, 5-β-androstan-3-β-ol-17-one], the “anti-obesity effects attributed to DHEA” value (obesity [8]) is listed as “known to accomplish the anti-obesity effects attributed to DHEA”, the “deactivation and excretion from general circulation” value [9] is listed as “rapidly deactivated and excreted from the body” and the “conjugation in blood stream” value [9] is listed as “conjugated to glucuronic acid at the 3-hydroxy position”.

For C[C@H]1CC[C@@]2(C)[C@H](CC[C@@H]3[C@@H]2CC[C@]2(C)C(=O)CC[C@@H]32)C1 [β-MET, 3-β-methyl-5-β-androstan-17-one], the “food intake versus control” value ([10]; female, 14 weeks (FIG. 6)) was “not significantly different”, the effect on appetite ([10]; male and female (FIG. 6)) was “without suppressing appetite” and the “cumulative food consumption versus control” value ([10]; male, 14 weeks (FIG. 6)) was “not significantly different”. For the same molecule, the estrogenic activity ([2]; mouse, in vivo) was “does not exhibit similar estrogenic activity”, the mutagenicity (Salmonella typhimurium) was “not mutagenic” and the “mean weight after 14 weeks” value ([11]; female, control female 26.1 g) was 21.8 g. For the same molecule, the “significance of difference in mean weights versus control” value ([11]; female) was “a significant difference in mean weights was observed after the third week of treatment”, the “inhibition of weight gain” value ([11]; male and female C57-WH mice, 14 weeks (FIG. 5)) was “significantly inhibits weight gain” and the “mean weight after 14 weeks” value ([11]; male, control male 24.8 g) was 20.7 g. For the same molecule, the “significance of difference in mean weights versus control” value ([11]; male) was “statistically significant after the sixth week of treatment”, the “inhibition of obesity in comparison to 3β-HET” value (obesity [12]; comparison to 3β-HET) was “much more effective inhibitor of obesity” and the “antiobesity efficacy and safety” value (obesity [12]; various mammalian systems) was “safe and effective antiobesity agent”. For the same molecule, the “behavioral or external physical differences from controls” value [13, 15] was “no obvious behavioral or external physical differences from controls”, the “hypertrophic lymph nodes, diarrhea, bloody stools, or loss of hair luster” value [13, 15] was “not seen” and the postmortem studies [13, 15] was “no gross abnormalities or visible pathological changes”. For the same molecule, the survival and health [13, 15] was “all experimental mice were alive and apparently healthy”, the “harm by short-term treatment with relatively large doses” value ([13]; approximately 20x the effective anti-obesity dose in mice) was “appears not to be harmful to mice” and the “examination of visible membranes” value ([13]; mouse, in vivo, po, 200 mg/kg) was “no abnormal findings”. The survival ([14]; 200 mg p.o. per ~15 g mouse, five male and five female) was “All of the animals survived” and the LD50 ([14]; mouse, in vivo, po, mice, p.o. in sesame oil) was > 10000 mg/kg.
